pIC50: −log10 of the molar value. Values after ≈ are worked out from the molar mass of the structure shown. Values joined by “and” are separate entries in the source; they are usually repeats but may differ in a detail not shown here. Identical values can stand only once.
How the values were obtained:
[1] = tested on: Human immunodeficiency virus 1; experiment: In vitro effective concentration against HIV-1 cytopathic effect in T4 cells; Inactive; type: functional, organism-based
[2] = tested on: MT4; experiment: In vitro inhibitory activity against uninfected T4 cells; type: functional, cell-based; settings: Homo sapiens
[3] = species on record: Homo sapiens; experiment: Selectivity ratio between the full panel MG-MID and leukemia subpanel MG-MID was determined.; type: functional
[4] = tested on: Panel melanoma (Carcinoma cell lines); experiment: In vitro median growth inhibitory concentration against melanoma cell lines; type: functional; settings: Homo sapiens
[5] = tested on: Panel prostate (Carcinoma cell lines); experiment: In vitro growth inhibitory concentration against prostate cancer cell lines; type: functional; settings: Homo sapiens
[6] = tested on: Breast cancer cell line; experiment: In vitro median growth inhibitory concentration against breast cancer cell lines; type: functional; settings: Homo sapiens
[7] = tested on: NSCLC; experiment: In vitro growth inhibitory concentration against non-small-cell lung cancer; type: functional; settings: Homo sapiens
[8] = tested on: Panel renal (Carcinoma cell lines); experiment: In vitro growth inhibitory concentration against renal cancer cell lines; type: functional; settings: Homo sapiens
[9] = tested on: Panel CNS (Carcinoma cell lines); experiment: In vitro median growth inhibitory concentration against CNS cancer cell lines; type: functional; settings: Homo sapiens
[10] = tested on: Ovarian cancer cell line; experiment: In vitro median growth inhibitory concentration against ovarian cancer cell lines; type: functional; settings: Homo sapiens
[11] = tested on: Panel leukemia (Carcinoma cell lines); experiment: In vitro median growth inhibitory conc. against leukemia was estimated.; type: functional; settings: Homo sapiens
[12] = In vitro median growth inhibitory concentration against colon cancer cell lines; type: functional; settings: Homo sapiens
[13] = tested on: Panel melanoma (Carcinoma cell lines); experiment: In vitro growth inhibitory concentration against melanoma cancer cell lines; type: functional; settings: Homo sapiens
[14] = Full panel mean-graph midpoint (MG-MID)
[15] = tested on: Panel CNS (Carcinoma cell lines); experiment: In vitro growth inhibitory concentration against CNS cancer cell lines; type: functional; settings: Homo sapiens
[16] = tested on: Panel renal (Carcinoma cell lines); experiment: In vitro median growth inhibitory concentration against renal cancer cell lines; type: functional; settings: Homo sapiens
[17] = tested on: Breast cancer cell line; experiment: In vitro growth inhibitory concentration against breast cancer cell lines; type: functional; settings: Homo sapiens
[18] = tested on: Panel prostate (Carcinoma cell lines); experiment: In vitro median growth inhibitory concentration against prostate cancer cell lines; type: functional; settings: Homo sapiens
[19] = In vitro growth inhibitory concentration against colon cancer tumor cell lines; type: functional; settings: Homo sapiens
[20] = tested on: Panel leukemia (Carcinoma cell lines); experiment: In vitro growth inhibitory concentration against leukemia tumor cell lines; type: functional; settings: Homo sapiens
[21] = tested on: NSCLC; experiment: In vitro median growth inhibitory concentration against non-small-cell lung cancer; type: functional; settings: Homo sapiens
[22] = tested on: Ovarian cancer cell line; experiment: In vitro growth inhibitory concentration against ovarian cancer cell lines; type: functional; settings: Homo sapiens
[23] = tested on: Tumor cell line; experiment: In vitro for median growth inhibitory concentration against ovarian cancer cell lines; type: functional; settings: Homo sapiens
[24] = tested on: Tumor cell line; experiment: In vitro for median growth inhibitory concentration against renal cancer cell lines; type: functional; settings: Homo sapiens
[25] = tested on: Tumor cell line; experiment: In vitro for median growth inhibitory concentration against CNS cancer cell lines; type: functional; settings: Homo sapiens
[26] = tested on: Tumor cell line; experiment: In vitro for median growth inhibitory concentration against prostate cancer cell lines; type: functional; settings: Homo sapiens
[27] = tested on: Tumor cell line; experiment: In vitro for median growth inhibitory concentration against colon cancer cell lines; type: functional; settings: Homo sapiens
[28] = tested on: Tumor cell line; experiment: In vitro for median growth inhibitory conc. against leukemia (compounds full panel MG-MID/leukemia subpanel MG-MID); type: functional; settings: Homo sapiens
[29] = Full panel mean-graph midpoint (MG-MID).
[30] = tested on: Tumor cell line; experiment: In vitro for median growth inhibitory concentration against melanoma cell lines; type: functional; settings: Homo sapiens
[31] = tested on: Tumor cell line; experiment: In vitro for median growth inhibitory concentration against breast cancer cell lines; type: functional; settings: Homo sapiens
[32] = tested on: Tumor cell line; experiment: In vitro for median growth inhibitory concentration against non small lung cancer cell lines; type: functional; settings: Homo sapiens
[33] = tested on: Tumor cell line; experiment: In vitro for growth inhibitory concentration against non small lung cancer cell lines; type: functional; settings: Homo sapiens
[34] = tested on: Human alphaherpesvirus 1; experiment: Minimum antiviral concentration proved to be lethal to viral population in uM; type: functional
[35] = tested on: Human alphaherpesvirus 1; experiment: Concentration which caused 50% loss of the monolayer present around the viral plaques in uM; type: functional, organism-based
[36] = tested on: Human alphaherpesvirus 1; experiment: Concentration which caused 50% loss of the monolayer present around the viral plaques in ug/mL.; type: functional, organism-based
[37] = tested on: Human alphaherpesvirus 1; experiment: Minimum antiviral concentration proved to be lethal to viral population in ug/mL.; type: functional
[38] = tested on: Human alphaherpesvirus 1; experiment: In vitro antiviral activity against Herpes Simplex-1 virus (HSV-1) expressed as percent reduction in the number of viral plaques; type: functional; parameters: concentration or dose not given beside the values

Structure (SMILES)	EC50 [1]	pIC50 [2]	Ratio [3]	GI50 [4]	TGI [5]	GI50 [6]	TGI [8]	GI50 [9]	GI50 [10]	GI50 [11]	GI50 [12]	TGI [13]	MG-MID [14]	TGI [15]	GI50 [16]	TGI [17]	GI50 [18]	TGI [19]	TGI [20]	TGI [22]	other results
CN1C/C(=C\c2cccs2)c2nc(O)c(C#N)c(-c3cccs3)c2C1	Not Active	< 3.70																			
COc1ccc(/C=C2\CN(C)Cc3c2nc(O)c(C#N)c3-c2ccc(OC)cc2)cc1	Not Active	3.98	1.5	79.9 µM	> 100 µM	66.9 µM	87.8 µM	44.9 µM	51.8 µM	35 µM	60.5 µM	> 100 µM	52.5 µM and 95.8 µM	> 100 µM	61.2 µM	> 100 µM	70.9 µM	> 100 µM	80.7 µM	> 100 µM	TGI [7]: > 100 µM; GI50 [21]: 66.6 µM
Cc1ccc(/C=C2\CN(C)CC3C2=NN(c2ccccc2)C3c2ccc(C)cc2)cc1 (configuration not stated)	Not Active	< 3.70	2.2	77.9 µM		> 100 µM		77 µM	92.8 µM	37.4 µM	> 100 µM		81 µM		83.7 µM		69.5 µM				GI50 [21]: 97.4 µM
CN1C/C(=C\c2cccs2)C(O)/C(=C/c2cccs2)C1 (configuration not stated)	Not Active	3.90	2.4	92.5 µM	> 100 µM	84.3 µM	> 100 µM	> 100 µM	81.4 µM	32.5 µM	85.8 µM	> 100 µM	77.1 µM and 97.7 µM	> 100 µM	96.2 µM	96.8 µM	> 100 µM	> 100 µM	78.1 µM	> 100 µM	TGI [7]: > 100 µM; GI50 [21]: 83.9 µM
Cc1ccc(/C=C2\CN(C)Cc3c2nc(O)c(C#N)c3-c2ccc(C)cc2)cc1	Not Active	< 3.70																			
CN1C/C(=C\c2cccs2)C2=NN(C)C(c3cccs3)C2C1 (configuration not stated)	Not Active	< 3.70	2.1	85 µM	> 100 µM	86 µM	> 100 µM	80.7 µM	74.4 µM	31.8 µM	79.2 µM	97.7 µM	68 µM and 97.7 µM	> 100 µM	89.7 µM	> 100 µM	59.5 µM	> 100 µM	87.8 µM	> 100 µM	TGI [7]: > 100 µM; GI50 [21]: 86.4 µM
COc1ccc(/C=C2\CN(C)CC3=C2OC(N)=C(C#N)C3c2ccc(OC)cc2)cc1 (configuration not stated)	Not Active	4.52			> 100 µM		96.9 µM					93.9 µM	85.6 µM	> 100 µM		93.8 µM		97.4 µM	49.9 µM	> 100 µM	GI50 [23]: 38.1 µM; GI50 [24]: 40.4 µM; GI50 [25]: 60.5 µM; GI50 [26]: 79.4 µM; GI50 [27]: 41.2 µM; GI50 [28]: 9.1 µM; MG-MID [29]: 33.3 µM; GI50 [30]: 70.7 µM; GI50 [31]: 48.6 µM; GI50 [32]: 36.7 µM; TGI [33]: 95.5 µM
Cc1ccc(/C=C2\CN(C)C/C(=C\c3ccc(C)cc3)C2O)cc1																					MAC [34]: 0.06 µM; pIC50 [35]: 6.20; IC50 [36]: 0.2 µg/mL (≈ 0.626 µM); MAC [37]: 0.02 µg/mL; Reduction [38]: 82%
CN1C/C(=C\c2ccc(Cl)cc2)C(=O)/C(=C/c2ccc(Cl)cc2)C1																					MAC [34]: 0.07 µM; pIC50 [35]: 6.16; IC50 [36]: 0.2 µg/mL (≈ 0.558 µM); MAC [37]: 0.02 µg/mL; Reduction [38]: 93%
Cc1ccc(/C=C2\CN(C)CC3=C2OC(N)=C(C#N)C3c2ccc(C)cc2)cc1 (configuration not stated)	Not Active	4.95			66.2 µM		54.5 µM					59.5 µM	51.1 µM	83.6 µM		70.1 µM		43.9 µM	17.9 µM	55.7 µM	GI50 [23]: 15.5 µM; GI50 [24]: 18.1 µM; GI50 [25]: 37.7 µM; GI50 [26]: 29.4 µM; GI50 [27]: 16.6 µM; GI50 [28]: 5.1 µM; MG-MID [29]: 16.9 µM; GI50 [30]: 26.6 µM; TGI [31]: 30.7 µM; GI50 [32]: 3.3 µM; TGI [33]: 54.1 µM
COc1ccc(/C=C2\CN(C)C/C(=C\c3ccc(OC)cc3)C2O)cc1																					MAC [34]: 0.06 µM; pIC50 [35]: 6.92; IC50 [36]: 0.04 µg/mL (≈ 0.114 µM); MAC [37]: 0.02 µg/mL; Reduction [38]: 58%
C[C@@]1(CO)[C@H](O)CC[C@@]2(C)[C@H]1CC[C@H]1C[C@@H]3C[C@@]12CC[C@]3(O)CO [APHIDICOLIN]																					MAC [34]: 0.02 µM; pIC50 [35]: 6.23; IC50 [36]: 0.2 µg/mL (≈ 0.591 µM); MAC [37]: 0.005 µg/mL; Reduction [38]: 100%

From ChEMBL document CHEMBL1133460, “Synthesis and biological evaluation of certain alpha,beta-unsaturated ketones and their corresponding fused pyridines as antiviral and cytotoxic agents” (J Med Chem, 2000)
